According to patent US20140148443A1, “Novel Imidazolines as dual inhibitors of MDM2 and MDMX” (priority 2012, published 2014):

Legend:
[1] = biological target: T1, GST-tagged MDMX (Homo sapiens, UniProt O15151); experiment: HTRF binding assay of GST-tagged MDMX to p53 peptide
T1 sequence (O15151 1-490): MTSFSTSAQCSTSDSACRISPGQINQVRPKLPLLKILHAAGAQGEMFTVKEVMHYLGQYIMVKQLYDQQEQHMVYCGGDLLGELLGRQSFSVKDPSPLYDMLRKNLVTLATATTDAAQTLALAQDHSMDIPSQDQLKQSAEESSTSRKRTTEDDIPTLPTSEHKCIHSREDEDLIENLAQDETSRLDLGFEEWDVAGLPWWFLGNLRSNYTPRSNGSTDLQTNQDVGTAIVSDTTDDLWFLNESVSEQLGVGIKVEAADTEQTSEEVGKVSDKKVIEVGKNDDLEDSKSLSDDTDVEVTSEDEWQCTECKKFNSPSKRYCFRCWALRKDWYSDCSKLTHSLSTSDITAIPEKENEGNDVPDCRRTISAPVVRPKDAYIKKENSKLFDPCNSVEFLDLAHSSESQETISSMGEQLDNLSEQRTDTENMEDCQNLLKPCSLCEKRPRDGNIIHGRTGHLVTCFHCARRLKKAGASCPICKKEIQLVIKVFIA

[2] = biological target: recombinant GST-tagged MDM2 (Homo sapiens, UniProt Q00987); experiment: HTRF assay of interaction between p53 peptide and GST-tagged MDM2; settings: inhibition of GST-MDM2 (160 ng/ml) binding to biotinylated p53-peptide
recombinant GST-tagged MDM2, sequence (Q00987 whole entry): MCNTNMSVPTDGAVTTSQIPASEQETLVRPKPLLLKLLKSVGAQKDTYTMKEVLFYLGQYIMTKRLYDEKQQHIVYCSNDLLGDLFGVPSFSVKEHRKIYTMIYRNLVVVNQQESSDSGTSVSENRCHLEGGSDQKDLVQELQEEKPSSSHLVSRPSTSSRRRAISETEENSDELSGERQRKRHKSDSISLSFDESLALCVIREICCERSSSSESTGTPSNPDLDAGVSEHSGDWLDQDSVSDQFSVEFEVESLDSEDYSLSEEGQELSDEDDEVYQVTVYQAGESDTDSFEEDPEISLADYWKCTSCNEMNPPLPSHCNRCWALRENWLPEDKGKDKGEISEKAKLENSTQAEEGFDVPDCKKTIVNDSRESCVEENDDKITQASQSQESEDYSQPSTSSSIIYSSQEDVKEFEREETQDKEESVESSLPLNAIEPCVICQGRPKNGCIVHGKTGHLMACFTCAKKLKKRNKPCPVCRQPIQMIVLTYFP
In short: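 Compounds were preincubated with 160 ng/ml GST-MDM2 and 90 nM N-terminally biotinylated p53-like peptide (final) in 20 mM TBS, 0.02% BSA, 1 mM DTT for 1 h at 37 °C. Eu-anti-GST antibody and streptavidin-APC were added for 30 min at room temperature; binding read as TR-FRET at 665 and 615 nm.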

SMILES	IC50 [1] [µM]	IC50 [2] [µM]
CCOc1cc(Cl)c(S(=O)(=O)NC(C)(C)C)cc1C1=N[C@@](C)(c2ccc(Cl)cc2)[C@@](C)(c2ccc(Cl)cc2)N1C(=O)N1CCN(CC(=O)NCCOC)CC1 [Example 49, 2-{4-[(4S,5R)-2-(5-tert-Butylsulfamoyl-4-chloro-2-ethoxy-phenyl)-4,5-bis-(4-chloro-phenyl)-4,5-dimethyl-4,5-dihydro-imidazole-1-carbonyl]-piperazin-1-yl}-N-(2-methoxy-ethyl)-acetamide]	1.34	0.0087
CCOc1cc(Cl)c(S(=O)(=O)NC(C)(C)C)cc1C1=N[C@@](C)(c2ccc(Cl)cc2)[C@@](C)(c2ccc(Cl)cc2)N1C(=O)N1CCN(CCC(N)=O)CC1 [Example 50, 3-{4-[(4S,5R)-2-(5-tert-Butylsulfamoyl-4-chloro-2-ethoxy-phenyl)-4,5-bis-(4-chloro-phenyl)-4,5-dimethyl-4,5-dihydro-imidazole-1-carbonyl]-piperazin-1-yl}-propionamide]	1.45	0.0093
CCOc1cc(Cl)c(S(=O)(=O)NC(C)(C)C)cc1C1=N[C@@](C)(c2ccc(Cl)cc2)[C@@](C)(c2ccc(Cl)cc2)N1C(=O)N1CCN(C2CCS(=O)(=O)C2)CC1 (stereo partly drawn) [Example 51, 5-{(4S,5R)-4,5-Bis-(4-chloro-phenyl)-1-[4-(1,1-dioxo-tetrahydro-thiophen-3-yl)-piperazine-1-carbonyl]-4,5-dimethyl-4,5-dihydro-1H-imidazol-2-yl}-N-tert-butyl-2-chloro-4-ethoxy-benzenesulfonamide]	0.798	0.007
CCOc1cc(Cl)c(S(=O)(=O)NC(C)(C)C)cc1C1=N[C@@](C)(c2ccc(Cl)cc2)[C@@](C)(c2ccc(Cl)cc2)N1C(=O)N1CCN(C(=O)Cn2cnnn2)CC1 [Example 52, 5-{(4S,5R)-4,5-Bis-(4-chloro-phenyl)-4,5-dimethyl-1-[4-(2-tetrazol-1-yl-acetyl)-piperazine-1-carbonyl]-4,5-dihydro-1H-imidazol-2-yl}-N-tert-butyl-2-chloro-4-ethoxy-benzene sulfonamide]	3.76	0.0173
CCOc1cc(Cl)c(S(=O)(=O)NC(C)(C)C)cc1C1=N[C@@](C)(c2ccc(Cl)cc2)[C@@](C)(c2ccc(Cl)cc2)N1C(=O)N1CCC(N2CCNC(=O)CC2)CC1 [Example 53, 5-{(4S,5R)-4,5-Bis-(4-chloro-phenyl)-4,5-dimethyl-1-[4-(5-oxo-[1,4]diazepan-1-yl)-piperidine-1-carbonyl]-4,5-dihydro-1H-imidazol-2-yl}-N-tert-butyl-2-chloro-4-ethoxy-benzene sulfonamide]	1.11	0.0145
CCOc1cc(Cl)c(S(=O)(=O)NC(C)(C)C)cc1C1=N[C@@](C)(c2ccc(Cl)cc2)[C@@](C)(c2ccc(Cl)cc2)N1C(=O)N1CCCC(O)C1 (stereo partly drawn) [Example 54, 5-[(4S,5R)-4,5-Bis-(4-chloro-phenyl)-1-(3-hydroxy-piperidine-1-carbonyl)-4,5-dimethyl-4,5-dihydro-1H-imidazol-2-yl]-N-tert-butyl-2-chloro-4-ethoxy-benzenesulfonamide]	4	0.0161
CCCOc1cc(Cl)c(S(=O)(=O)N2CCCC2)cc1C1=N[C@@](C)(c2ccc(Cl)cc2)[C@@](C)(c2ccc(Cl)cc2)N1C(=O)N1CCN(CCCS(C)(=O)=O)CC1 [Example 55, {(4S,5R)-4,5-Bis-(4-chloro-phenyl)-2-[4-chloro-2-propoxy-5-(pyrrolidine-1-sulfonyl)-phenyl]-4,5-dimethyl-4,5-dihydro-imidazol-1-yl}-[4-(3-methanesulfonyl-propyl)-piperazin-1-yl]-methanone]	3.94	0.0181
CCOc1cc(Cl)c(S(=O)(=O)N2CCCC2)cc1C1=N[C@@](C)(c2ccc(Cl)cc2)[C@@](C)(c2ccc(Cl)cc2)N1C(=O)N1CCC(CC(N)=O)CC1 [Example 56, 2-{1-[(4S,5R)-2-[4-Chloro-2-ethoxy-5-(pyrrolidine-1-sulfonyl)-phenyl]-4,5-bis-(4-chloro-phenyl)-4,5-dimethyl-4,5-dihydro-imidazole-1-carbonyl]-piperidin-4-yl}-acetamide]	3.43	0.0085
CCOc1cc(Cl)c(S(=O)(=O)N2CCOCC2)cc1C1=N[C@@](C)(c2ccc(Cl)cc2)[C@@](C)(c2ccc(Cl)cc2)N1C(=O)N1CCN(CCCS(C)(=O)=O)CC1 [Example 57, [(4S,5R)-2-[4-Chloro-2-ethoxy-5-(morpholine-4-sulfonyl)-phenyl]-4,5-bis-(4-chloro-phenyl)-4,5-dimethyl-4,5-dihydro-imidazol-1-yl]-[4-(3-methanesulfonyl-propyl)-piperazin-1-yl]-methanone]	1.64	0.04
CC(C)Oc1cc(Cl)c(S(=O)(=O)N2CCCC2)cc1C1=N[C@@](C)(c2ccc(Cl)cc2)[C@@](C)(c2ccc(Cl)cc2)N1C(=O)N1CCN(CCCS(C)(=O)=O)CC1 [Example 58, [(4S,5R)-2-[4-Chloro-2-isopropoxy-5-(pyrrolidine-1-sulfonyl)-phenyl]-4,5-bis-(4-chloro-phenyl)-4,5-dimethyl-4,5-dihydro-imidazol-1-yl]-[4-(3-methanesulfonyl-propyl)-piperazin-1-yl]-methanone]	0.232	0.0046
CC(C)Oc1cc(Cl)c(S(=O)(=O)N2CCCC2)cc1C1=N[C@@](C)(c2ccc(Cl)cc2)[C@@](C)(c2ccc(Cl)cc2)N1C(=O)N1CCC(CC(N)=O)CC1 [Example 59, 2-{1-[(4S,5R)-2-[4-Chloro-2-isopropoxy-5-(pyrrolidine-1-sulfonyl)-phenyl]-4,5-bis-(4-chloro-phenyl)-4,5-dimethyl-4,5-dihydro-imidazole-1-carbonyl]-piperidin-4-yl}-acetamide]	0.195	0.0058
CC(C)Oc1cc(Cl)c(S(=O)(=O)NC(C)(C)C)cc1C1=N[C@@](C)(c2ccc(Cl)cc2)[C@@](C)(c2ccc(Cl)cc2)N1C(=O)N1CCC(CC(N)=O)CC1 [Example 60, 2-{1-[(4S,5R)-2-(5-tert-Butylsulfamoyl-4-chloro-2-isopropoxy-phenyl)-4,5-bis-(4-chloro-phenyl)-4,5-dimethyl-4,5-dihydro-imidazole-1-carbonyl]-piperidin-4-yl}-acetamide]	0.57	0.015
CC(C)Oc1cc(Cl)c(S(=O)(=O)N2C[C@H]3CC[C@@H](C2)O3)cc1C1=N[C@@](C)(c2ccc(Cl)cc2)[C@@](C)(c2ccc(Cl)cc2)N1C(=O)N1CCC(CC(N)=O)CC1 [Example 61, 2-{1-[(4S,5R)-2-{4-Chloro-2-isopropoxy-5-[(1R,5S)-(8-oxa-3-aza-bicyclo[3.2.1]oct-3-yl)sulfonyl]-phenyl}-4,5-bis-(4-chloro-phenyl)-4,5-dimethyl-4,5-dihydro-imidazole-1-carbonyl]-piperidin-4-yl}-acetamide]	0.267	0.0091
CC(C)Oc1cc(Cl)c(S(=O)(=O)N2C[C@H]3CC[C@@H](C2)O3)cc1C1=N[C@@](C)(c2ccc(Cl)cc2)[C@@](C)(c2ccc(Cl)cc2)N1C(=O)N1CCN(CCCS(C)(=O)=O)CC1 [Example 62, [(4S,5R)-2-{4-Chloro-2-isopropoxy-5-[(1R,5S)-(8-oxa-3-aza-bicyclo[3.2.1]oct-3-yl)sulfonyl]-phenyl}-4,5-bis-(4-chloro-phenyl)-4,5-dimethyl-4,5-dihydro-imidazol-1-yl]-[4-(3-methanesulfonyl-propyl)-piperazin-1-yl]-methanone]	0.193	0.0048
